Reference: ChEMBL document CHEMBL1817596, “Synthesis of a hypoxia-targeted conjugate of the cardioprotective agent 3',4'-dihydroxyflavonol and evaluation of its ability to reduce ischaemia/reperfusion injury” (Bioorg Med Chem Lett, 2011)
pEC50: −log10 of the molar value. Active and inactive are the calls of the source. The rule behind the calls is not given here.

What was measured:
[1] = Drug uptake in rat Con8 cells assessed as compound level in supernatant under normoxic condition at 10^-5 M after 3 hrs by HPLC analysis; format: ADME, cell-based; conditions: con8, 3 h, 10 µM
[2] = Drug uptake in rat Con8 cells assessed as compound level in supernatant under hypoxic condition at 10^-5 M after 3 hrs by HPLC analysis; format: ADME, cell-based; conditions: con8, 3 h, 10 µM
[3] = Drug uptake in rat Con8 cells assessed as compound level in cell lysate under normoxic condition at 10^-5 M after 3 hrs by HPLC analysis; format: ADME, cell-based; conditions: con8, 3 h, 10 µM
[4] = Drug uptake in rat Con8 cells assessed as compound level in cell lysate under hypoxic condition at 10^-5 M after 3 hrs by HPLC analysis; format: ADME, cell-based; conditions: con8, 3 h, 10 µM
Aorta [5] = assay: Vasorelaxant activity in Sprague-Dawley rat thoracic aortic rings assessed as inhibition of phenylephrine-induced contraction at 10^-5 M after 20 mins; format: functional, tissue-based
Aorta [6] = assay: Vasorelaxant activity in phenylephrine and KPSS-precontracted Sprague-Dawley rat thoracic aortic rings at 10^-10 to 10^-4 M measured after 20 mins; format: functional, tissue-based
Aorta [7] = assay: Antioxidant activity in Sprague-Dawley rat thoracic aortic rings assessed as inhibition of NADPH-activated superoxide formation at 10^-6 to 10^-4 M by lucigenin-enhanced chemiluminescence assay; format: functional, tissue-based
Aorta [8] = assay: Inhibition of acetylcholine-induced relaxation Sprague-Dawley rat thoracic aortic rings at 10^-5 M after 20 mins in presence of superoxide generator pyrogallol; format: functional; parameters: scale not given: the % may be the effect or the level left
Rattus norvegicus [9] = assay: Cardioprotection activity in ischemia/reperfusion-induced Sprague-Dawley rat hindquarters assessed as reduction in circulating LDH level at 8.6 mg/kg, bolus dose administered 5 mins prior to reperfusion measured 30 mins to 3 hrs after reperfusion by UV-VIS spectrophotometry; format: functional, organism-based; parameters: dose 8.6 mg/kg
Rattus norvegicus [10] = assay: Cardioprotection activity in ischemia/reperfusion-induced in Sprague-Dawley rat hindquarters assessed as reduction in MPO level at 8.6 mg/kg, bolus dose administered 5 mins prior to reperfusion by spectrophotometry relative to control; format: functional, organism-based; parameters: dose 8.6 mg/kg
Rattus norvegicus [11] = assay: Cardioprotection activity in ischemia/reperfusion-induced Sprague-Dawley rat hindquarters assessed as reduction in circulating LDH level at 5 mg/kg, bolus dose administered 5 mins prior to reperfusion measured 2 hrs after reperfusion by UV-VIS spectrophotometry; format: functional, organism-based; parameters: dose 5 mg/kg
Rattus norvegicus [12] = assay: Cardioprotection activity in ischemia/reperfusion-induced in Sprague-Dawley rat hindquarters assessed as reduction in MPO level at 5 mg/kg, bolus dose administered 5 mins prior to reperfusion by spectrophotometric analysis relative to control; format: functional, organism-based; parameters: dose 5 mg/kg
Rattus norvegicus [13] = assay: Cardioprotection activity in ischemia/reperfusion-induced Sprague-Dawley rat hindquarters assessed as reduction in circulating LDH level at 5 mg/kg, bolus dose administered 5 mins prior to reperfusion measured 3 hrs after reperfusion by UV-VIS spectrophotometry; format: functional, organism-based; parameters: dose 5 mg/kg

Row | Drug uptake [1] | Drug uptake [2] | Drug uptake [3] | Drug uptake [4] | pEC50 (Aorta [6]) | SMILES | Activity (Aorta [5]) | Activity (Aorta [6]) | Activity (Aorta [7]) | Activity (Aorta [8]) [%] | Activity (Rattus norvegicus [9]) | Activity (Rattus norvegicus [10]) | Activity (Rattus norvegicus [11]) | Activity (Rattus norvegicus [12]) | Activity (Rattus norvegicus [13])
1 | Active | Active | Active | Active | – | O=c1c(O)c(-c2ccc(O)c(O)c2)oc2ccc(-n3cc(Cn4ccnc4[N+](=O)[O-])nn3)cc12 | inactive | inactive | Active | 50 | Active | Active | – | – | –
2 | Active | Active | Active | Active | 5.33 | O=c1c(O)c(-c2ccc(O)c(O)c2)oc2ccccc12 | Active | – | – | – | – | – | Active | inactive | Active
